Results: patent publication US12116343B2, “Inhibitors of APOL1 and methods of using same” (Vertex Pharmaceuticals Incorporated, priority 2020, dated 2024)
Like-named read-outs stand apart in the source and are kept apart here.

Target: T1, G1 APOL1 (Homo sapiens, UniProt O14791, I384M/S342G)
T1 construct: expressed in transfected cells
T1 sequence (O14791 28-398 S342G/I384M): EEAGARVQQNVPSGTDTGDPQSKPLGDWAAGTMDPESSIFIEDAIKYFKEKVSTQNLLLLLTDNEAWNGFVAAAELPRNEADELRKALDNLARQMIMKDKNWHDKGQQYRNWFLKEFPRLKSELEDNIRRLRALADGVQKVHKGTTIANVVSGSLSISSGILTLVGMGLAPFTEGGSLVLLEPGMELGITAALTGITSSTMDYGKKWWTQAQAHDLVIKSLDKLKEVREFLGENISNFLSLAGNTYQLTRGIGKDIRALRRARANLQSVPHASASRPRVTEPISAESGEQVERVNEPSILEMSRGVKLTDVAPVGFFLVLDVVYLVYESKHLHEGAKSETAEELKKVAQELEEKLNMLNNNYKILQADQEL
Assay: Acute APOL1 Thallium Assay with inducible stable clones of HEK 293 cells
Format: cell-based
Conditions: read-out: Thallium Assay (IC50)
Text: Acute APOL1 Thallium Assay with Inducible Stable Clones of HEK 293 Cells
Apolipoprotein L1 (APOL1) proteins form potassium-permeable cation pores in the plasma membrane. APOL1 risk variants (G1 and G2) induce greater potassium flux than G0 in HEK293 cells. This assay exploits the permeability of thallium (Tl+) through ligand-gated potassium channels. The dye produces a bright fluorescent signal upon binding to Tl+ conducted through potassium channels. The intensity of the Tl+ signal is proportional to the number of potassium channels in the open state. Therefore, it provides a functional indication of the potassium channel activities. During the initial dye-loading step, the Tl+ indicator dye as an acetoxymethyl (AM) ester enters the cells through passive diffusion. Cytoplasm esterases cleave the AM ester and relieve its active thallium-sensitive form. The cells are then stimulated with Tl+. The increase of fluorescence in the assay represents the influx of Tl+ into the cell specifically through the potassium channel (i.e. through APOL1 pores), providing a functional measurement of potassium channel/pore activity. The Thallium assay is conducted with cells expressing G1 APOL1.
APOL1 Cell Line (HEK T-Rex Stable Inducible Cell Line) • HEK T-Rex System • Tetracycline (Tet) inducible mammalian expression system. • Stably express the Tet repressor to regulate transcription. • Expression under the full-length CMV promoter. • APOL1 stable inducible cell line Clone used: G1 DC3.25
Tissue Culture Media • Cell Culture Medium • DMEM+10% FBS+P/S+5 μg/mL blasticidin+1 μg/mL puromycin. • 500 mL DMEM+55 mL FBS+5 mL P/S+280 μL blasticidin S HCl (10 mg/mL)+56 μL puromycin (10 mg/mL). • Cell Assay Medium • DMEM with 2% FBS+pen strep.
Instruments and Equipment • Nuaire cell culture hood, Cat. No. 540-600 • 37° C./5% CO2 incubator link to robotic arm, Liconic: STX110 • Molecular Devices FLIPR^Tetra High throughput cellular screening system, Cat. No. FT0324, Molecular Devices • ThermoFisher MultiDrop 384, Cat. No. 5840300 • Biotek Microfill, Cat. No. ASF1000A-4145 • BioRad TC10 cell counter, Cat. No. 145-0010 Assay Procedures
Cells Scaled Up from Frozen Vials • APOL1 G1 3.25 (HEK293 T-Rex) frozen vials: 5 million cells per vial • Step 1, Day 1: Defrost frozen vial into T-225. • Step 2, Day 5: (when 85% confluent): Split one T-225 at 3×10^6 cells per flask. • Step 3, Day 8: Splits cells to set up for the assay plates as described below.
T-Rex APOL1 HEK cells are split twice per week to keep the confluence state below 85% of the culture flask surface area. Cells can be kept until passage 25. • Cell Culture Medium • DMEM high glucose+10% FBS, +P/S, +5 μg/mL blasticidin, +1 μg/mL puromycin. • 500 mL DMEM, +55 mL FBS, +5 mL P/S, +280 μL blasicidin 10 mg/mL, +56 μL Puromycin 10 mg/mL. • Assay Media • Opti-MEM reduced serum medium from Invitrogen.
Preparation of Cell Assay Plates • Culture medium is removed from the x cm^2 T-flask by aspiration. • The cell monolayer is rinsed with PBS 1× at room temperature. PBS is removed by aspiration. • Cells are trypsinized using Trypsin. • The flasks are incubated at room temperature for 2-3 minutes. • Complete DMEM medium is then added. Cell suspension is then transferred to a 50 mL Falcon polypropylene tube. • Cells are then counted using a Biorad TC10 cell counter and the required amount of cells are centrifuged at 1200 RPM for 5 minutes. Required amount is 1.3×10^6 cells/mL APOL1 T-Rex HEK cells. • The pellet is suspended in the assay medium. • Using the MultiDrop, add 20 μL to each well (corresponds to 26000 cells total per well) of a 384-well black, transparent, flat bottom Poly-D coated plate. • Tetracycline as prepared in the following section is added to the cells before plating to induce APOL1 expression. • Plates are left at room temperature for 20 to 30 minutes before incubation at 37° C. and 5% CO2. […]

[1] = HEK 293 T-Rex cells expressing G1 APOL1

| SMILES | IC50 (Table 24, Compounds 287 to 465) [µM] | IC50 [1] [µM] |
| --- | --- | --- |
| COC1CC1NC(=O)O[C@H]1C[C@H](c2c(-c3ccc(F)cc3)[nH]c3c(F)cc(F)cc32)C1 (stereo partly shown) [Compound 376] | > 1 | – |
| O=C(NCC1CCNC1=O)NC[C@H]1C[C@H](c2c(-c3ccc(F)cc3)[nH]c3c(F)cc(F)cc32)C1 (stereo partly shown) [Compound 417] | > 1 | – |
| CC1(O)CC(NC(=O)C2CC(Cc3c(-c4ccc(F)cc4)[nH]c4c(F)cc(F)cc34)C2)C1 (stereo not shown) [Compound 325] | > 1 | – |
| C[C@@H](O)CNC(=O)[C@H]1C[C@@H](c2c(-c3ccc(F)cc3)[nH]c3c(F)cc(F)cc32)C1 [Compound 258] | – | > 1 |
| CC1CC(NC(=O)NC[C@H]2C[C@H](c3c(-c4ccc(F)cc4)[nH]c4c(F)cc(F)cc43)C2)C(=O)O1 (stereo partly shown) [Compound 395] | > 1 | – |
| C[C@H](CO)N(C)C(=O)NC[C@H]1C[C@H](c2c(-c3ccc(F)cc3)[nH]c3c(F)cc(F)cc32)C1 [Compound 404] | > 1 | – |
| O=C(N[C@@H](CO)C(F)(F)F)C1CC(Cc2c(-c3ccc(F)cc3)[nH]c3c(F)cc(F)cc23)C1 (stereo partly shown) [Compound 306] | > 1 | – |
| CC(C)C[C@H](CO)NC(=O)C1CC(Cc2c(-c3ccc(F)cc3)[nH]c3c(F)cc(F)cc23)C1 (stereo partly shown) [Compound 302] | > 1 | – |
| Cn1cc(CNC(=O)O[C@H]2C[C@H](c3c(-c4ccc(F)cc4)[nH]c4c(F)cc(F)cc43)C2)nn1 [Compound 387] | > 1 | – |
| O=C(NC[C@H](O)C(F)(F)F)NC[C@H]1C[C@H](c2c(-c3ccc(F)cc3)[nH]c3c(F)cc(F)cc32)C1 [Compound 406] | > 1 | – |
| N#CC(CO)NC(=O)C1CC(Cc2c(-c3ccc(F)cc3)[nH]c3c(F)cc(F)cc23)C1 (stereo not shown) [Compound 303] | > 1 | – |
| O=C(N[C@H]1CC[C@H](O)C1)[C@H]1C[C@H](c2c(-c3ccc(F)cc3)[nH]c3c(F)cc(F)cc32)C1 [Compound 187] | – | > 1 |
| O=C(CN[C@H]1C[C@H](c2c(-c3ccc(F)cc3)[nH]c3c(F)cc(F)cc32)C1)NCO [Compound 289] | 0.25 to 1 | – |
| CC1(C(=O)NCCO)CC(c2c(-c3ccc(F)cc3)[nH]c3c(F)cc(F)cc23)C1 (mixture of isomers) [Compound 283] | – | 0.25 to 1 |
| C[C@H](CO)NC(=O)[C@H]1C[C@@H](c2c(-c3ccc(F)cc3)[nH]c3c(F)cc(F)cc32)C1 [Compound 272] | – | > 1 |
| CS(=O)(=O)CCNC(=O)C1CC(Cc2c(-c3ccc(F)cc3)[nH]c3c(F)cc(F)cc23)C1 (stereo not shown) [Compound 316] | > 1 | – |
| CC1(NC(=O)NC[C@H]2C[C@H](c3c(-c4ccc(F)cc4)[nH]c4c(F)cc(F)cc43)C2)CCNC1=O (mixture of isomers) [Compound 426] | > 1 | – |
| O=C(N[C@H]1CCOC1=O)C1CC(Cc2c(-c3ccc(F)cc3)[nH]c3c(F)cc(F)cc23)C1 (stereo partly shown) [Compound 305] | > 1 | – |
| C[C@H](NCC1CC(c2c(-c3ccc(F)cc3)[nH]c3c(F)cc(F)cc23)C1)C(N)=O (stereo partly shown) [Compound 439] | > 1 | – |
| CC(C)CC(NCC1CC(c2c(-c3ccc(F)cc3)[nH]c3c(F)cc(F)cc23)C1)C(N)=O (stereo not shown) [Compound 441] | > 1 | – |
| NC(=O)CCNC1CC(c2c(-c3ccc(F)cc3)[nH]c3c(F)cc(F)cc23)C1 (stereo not shown) [Compound 287, 3-[[3-[5,7-difluoro-2-(4-fluorophenyl)-1H-indol-3-yl]cyclobutyl]amino]propanamide] | > 1 | – |
| O=C(NC[C@H]1C[C@H](c2c(-c3ccc(F)cc3)[nH]c3c(F)cc(F)cc32)C1)N[C@H]1CC[C@@H]1O [Compound 402] | > 1 | – |
